In assay [1] the test system is HeLa-CAT cells. The experiment in a line: Rates of protein and DNA synthesis in HSF1(+)-expressing cells (3H-leucine, 3H-thymidine incorporation). In kind it is cell-based, human. The note with it: day 2. Here is the method: CAT assays were performed using the chromatographic assay of Gorman, C. M. et al., Mol. Cell. Biol., 2:1044–1051 (1982)). DNA replication was assessed by a standard ^3H-thymidine incorporation assay. In most experiments, including all western blot assays, standardization was based on protein content. All protein determinations were made using the Bradford method. In a few experiments involving sorted cells, standardization was based on cell numbers. All experiments were repeated at least twice, and, in most cases, each data point was derived from assays of 3–5 parallel samples.
Protein synthesis dropped to about 10% of the normal rate during heat shock but, after a 1 hour recovery period, returned to pre-shock level in HSF1(+)-expressing but not control cells. […] Fluorescence-activated cell sorting and analyses of DNA content were performed on a FACStar Plus machine (Becton-Dickinson, San Jose, Calif.) configured as described elsewhere (Parks, D. R. et al., In: The Handbook of Experimental Immunology, 4th Edition. Vol. 29. pp. 1–29, 1986). Excitation wave length was 488 nm, and detection lengths were 650 nm (long pass) for propidium iodide and 520 nm (narrow band) for fluorescence by GFP. Extracts from sorted cells were analyzed by western blot. mutHSF was detected in cells sorted as positive for GFP, but not in cells sorted as negative compare. […]
On the technique in general: Uptake of a labelled nucleoside into DNA is a usual measure of proliferation.

The next assay concerns rodent cell lines. Kind of assay: hsp overexpression in rodent cell lines. The note with it: several rodent cell lines. In kind it is cell-based.
In assay [2] the test system is HeLa-CAT cells. The experiment in a line: Cell survival after heat shock, count of β-galactosidase-positive cells. It is filed as cell-based, human. Particulars: heat shock 48° C./10 minutes; p<0.05. As for the experimental part:
To also assess the effect of expression of HSF1(−) on stress-induced cell killing, cultures were transfected with a beta-galactosidase gene or co-transfected with the beta-galactosidase gene and the HSF1(−) construct.
Transfected cultures were subjected to a severe heat shock (48° C./10 minutes; about 75% cell survival) or left untreated, and β-galactosidase-positive cells were counted the following day. Untreated, singly and doubly transfected cultures contained similar number of β-galactosidase-expressing cells. In the heat-shocked cultures, the presence of HSF1(−) increased cell killing by about 60% (p<0.05). Thus, the increase in Hsp levels occurring as a consequence of a stressful event has a significant, immediate protective effect.

Take human HSF1d202–316 [HSF1(+)]: in the assay with HeLa-CAT cells [1], the “reduction of DNA replication (3H-thymidine incorporation) compared to control cells” value is listed as 4–5 fold. Moreover, in the assay on rodent cell lines, the “pattern of hsp overexpression” value is recorded as “hsp90 and, to a lesser extent, hsp25 were clearly overexpressed; the rate of hsp70 synthesis was only marginally enhanced”.
On to human HSF1d453–523 [HSF1(−)], for which, in the assay on HeLa-CAT cells [2], the “increase in cell killing” value is listed as “about 60%”.

The values are drawn from patent US7053052B2, “Therapies involving mutated heat shock transcription factor” (priority 1997, dated 2006).
